Data as given in patent publication US10093629B2, “Heterocyclic compounds and their use as retinoid-related orphan receptor (ROR) gamma-T inhibitors” (Takeda Pharmaceutical Company Limited, priority 2014, dated 2018).
Like-named read-outs stand apart in the source and are kept apart here.

What was measured:
[1] = tested on: IL-17 production in human blood; test: Effect on IL-17 production in human blood; assay type: cell-based; conditions: 72 h; 10 μM test compound; human peripheral blood, IL-23 and Dynabeads stimulation, 3 days; read-out: percent inhibition at 10 μM (IL-17 production)
Procedure: Effect on IL-17 Production in Human Blood
The inhibitory effect of the test compound on IL-17 production in human blood was evaluated as follows. First, 150 μL of peripheral blood collected from healthy individuals using heparinized vacuum blood collection tubes was dispensed into each well of a 96-well plate (Corning), and 45 μL of RPMI 1640 medium (Gibco) containing 10% fetal bovine serum (FBS, Hyclone) and 30 μL of the test compound diluted with the medium were added to each well. The plate was then cultured for 30 min at 37° C. The cells were subsequently stimulated by adding 30 μL of 100 ng/mL human IL-23 (R&D) and 45 μL of Dynabeads Human (Invitrogen) to each well and culturing the plate for 3 days at 37° C. In wells without stimulation, 75 μL of RPMI 1640 medium containing 10% FBS was added instead of the IL-23 and Dynabeads solution. After culturing for 3 days, the culture supernatant was collected, and the amount of IL-17 in the supernatant was measured using an IL-17 ELISA kit (R&D).
The results (percent inhibition of IL-17 production with 10 μM of the test compound) measured by the above-mentioned method are shown in Table 8.

RORγt [2] = target: T1, RORγt (Homo sapiens, UniProt P51449); test: Cofactor recruitment test (Alpha Screen, biotinylated SRC-1 peptide); assay type: biochemical; conditions: read-out: signal value inhibitory rate at test compound 1 μM
T1 sequence (P51449 1-497 isoform P51449-2): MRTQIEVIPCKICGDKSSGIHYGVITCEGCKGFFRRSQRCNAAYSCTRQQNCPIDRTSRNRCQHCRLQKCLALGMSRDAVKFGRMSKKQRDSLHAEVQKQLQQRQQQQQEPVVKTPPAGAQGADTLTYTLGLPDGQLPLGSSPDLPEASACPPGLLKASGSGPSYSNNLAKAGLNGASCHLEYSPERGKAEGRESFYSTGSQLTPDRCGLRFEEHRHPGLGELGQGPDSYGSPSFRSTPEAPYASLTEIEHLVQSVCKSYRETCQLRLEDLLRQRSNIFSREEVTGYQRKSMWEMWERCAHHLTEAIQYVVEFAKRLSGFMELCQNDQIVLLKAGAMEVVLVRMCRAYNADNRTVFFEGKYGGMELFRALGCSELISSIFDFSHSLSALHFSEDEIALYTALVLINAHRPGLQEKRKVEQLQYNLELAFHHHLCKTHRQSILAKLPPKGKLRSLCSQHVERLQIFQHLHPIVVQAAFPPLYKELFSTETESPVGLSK
Procedure: Cofactor Recruitment Test
Cofactor recruitment test was performed by Alpha Screen (Histidine Detection Kit, PerkinElmer) method. First, a test compound was diluted with an assay buffer (50 mM Tris-HCl (pH 7.5), 50 mM KCl, 1 mM DTT, 0.1% BSA) and added to a 384 well plate by 5 μL. […] The mixture was stood in a dark place for 1 hr, and the signal value was measured by Envision (PerkinElmer).

RORγt [3] = target: T1, RORγt; test: RORγt binding test using fluorescent-labeled synthetic ligand (TR-FRET); conditions: read-out: binding inhibitory rate of fluorescent-labeled synthetic ligand to RORγt at test compound 1 μM
Procedure: RORγt Binding Test using Fluorescent-Labeled Synthetic Ligand
The binding activity of the test compound to RORγt was measured by a time resolved fluorescence resonance energy transfer method (TR-FRET) utilizing histidine-tagged RORγt, fluorescent-labeled synthetic ligand and terbium-labeled anti-histidine tag antibody (Invitrogen). First, a test compound diluted with an assay buffer (20 mM Tris-HCl (pH 7.5), 100 mM NaCl, 1 mM DTT, 0.1% BSA) was added to a 384 well plate by 3 μL. Then, RORγt diluted with an assay buffer to 240 nM was added by 3 μL, after which fluorescent-labeled synthetic ligand diluted with the assay buffer to 12 μM was added by 3 μL, and the mixture was stood at room temperature for 20 min. Thereafter, a terbium-labeled anti-histidine tag antibody diluted with the assay buffer to 8 nM was added by 3 μL. The mixture was stood at room temperature for 20 min, and fluorescence intensity (excitation wavelength 320 nm, fluorescence wavelength 520 nm, delay time 100 microseconds) was measured by Envision (PerkinElmer).

RORγt [4] = target: T1, RORγt; test: Jurkat reporter test (human IL-17 ROR response element luciferase, RORγt vector); assay type: cell-based; conditions: test compound 3 μM, Jurkat cells, read-out: luminescence level inhibitory rate at test compound 3 μM
Procedure: The Jurkat cells used for the reporter test were cultured in a culture medium (RPMI (Invitrogen), 10% FCS (AusGeneX), 100 U/mL penicillin, 100 μg/mL streptomycin). On the day of the test, 4×10^7 cells were recovered by a centrifugal operation (1000 rpm, 5 min.) and suspended in PBS (phosphate buffered saline) (Invitrogen). Thereafter, the cells were recovered again by a centrifugal operation, and suspended in 2 mL of R buffer (NEON transfection kit, Invitrogen). […] Gene transfer was performed by Electroporation apparatus (NEON, Invitrogen) under the conditions of pulse voltage 1350 V, interval 10 milliseconds, number of times 3. The cells after gene transfer were suspended in 40 mL of a reaction medium (RPMI, 10% Lipid reduced FCS (HyClone), 10 mM HEPES (pH 7.5), 100 U/mL penicillin, 100 μg/mL streptomycin, 5 μM lovastatin), and plated in a 96 well plate by 90 μL. A test compound diluted with the reaction medium was added by 10 μL, and the cells were cultured overnight in an incubator. Bright-Glo (Promega) was added by 100 μL, and the mixture was stirred at room temperature for 10 min, and the luminescence level was measured by Envision (PerkinElmer).

IL-17A gene expression = test: Effect on IL-23-induced cytokine expression in mice; assay type: in vivo, mouse; conditions: 10 mg/kg oral, 30 min before and 8 hr after IL-23; ear of Balb/c mice; versus the negative control group
Procedure: Effect on IL-23-Induced Cytokine Expression in Mice
A mouse IL-23 solution (500 ng/10 μL, prepared by Takeda Pharmaceutical Company Limited) or PBS (10 μL, negative control group) was administered intradermally in the ear of Balb/c mice (Charles River Japan, male, 7 weeks old). Twenty-four hr after administration, the ear was resected under isoflurane anesthesia. The test compound was suspended in 0.5% methylcellulose and administered orally 30 min before and 8 hr after IL-23 administration.
RNA extraction from the ear tissue and quantitative PCR were performed as follows. Specifically, ear tissue 5 mm in diameter was punched from an area of the resected ear centering on the IL-23 injection site, and the tissue was immersed in RNAlater (QIAGEN) for at least 18 hr. The RNAlater-treated ear tissue was homogenized in 350 μL of RLT buffer (RNeasy mini kit, QIAGEN) and treated (55° C., 10 min) with Proteinase K (QIAGEN). Total RNA was then extracted according to the RNeasy mini kit protocol. The RNA thus obtained was then reverse transcribed into cDNA using the High-Capacity RNA-to-cDNA kit (Applied Biosystems), and the amount of each gene expressions was measured by real-time PCR (Viia7™, Applied Biosystems). The PCR buffer used was TaqMan Fast Advanced Master Mix (Applied Biosystems), and TaqMan Gene Expression Assays (Applied Biosystems) Mm00439618_m1 (IL-17A) and 4352341E (β-actin) were used for each gene detection. The IL-17A gene expression level was normalized to the β-actin gene expression level, and the percent inhibition of IL-17A gene expression with the test compound was then calculated.
The results (percent inhibition of IL-17A gene expression with oral administration of the test compound) measured by the above-mentioned method are shown in Table 9.

SMILES: COc1ccc2c(c1)CCN(C(=O)C1CC(CC(=O)O)C1)[C@H]2C(=O)Nc1cc(F)c([Si](C)(C)C)c(F)c1 (stereo partly drawn) [Example 4, (3-(((1R)-1-((3,5-difluoro-4-(trimethylsilyl)phenyl)carbamoyl)-6-methoxy-3,4-dihydroisoquinolin-2(1H)-yl)carbonyl)cyclobutyl)acetic acid]
- inhibition at 10 µM [1]: 88.3%
- inhibition at 1 µM (RORγt [2]): 94%
- inhibition at 1 µM (RORγt [3]): 102%
- inhibition at 3 µM (RORγt [4]): 100%
- percent inhibition of IL-17A gene expression (IL-17A gene expression): 86%

SMILES: COc1ccc2c(c1)CCN(C(=O)[C@H]1C[C@@H](C(=O)O)C1)[C@H]2C(=O)Nc1cc(F)c([Si](C)(C)C)c(F)c1 [Example 5, cis-3-(((1R)-1-((3,5-difluoro-4-(trimethylsilyl)phenyl)carbamoyl)-6-methoxy-3,4-dihydroisoquinolin-2(1H)-yl)carbonyl)cyclobutanecarboxylic acid]
- inhibition at 10 µM [1]: 88.6%
- inhibition at 1 µM (RORγt [2]): 93%
- inhibition at 1 µM (RORγt [3]): 102%
- inhibition at 3 µM (RORγt [4]): 100%
- percent inhibition of IL-17A gene expression (IL-17A gene expression): 57%

SMILES: CCOc1ccc2c(c1)CCN(C(=O)[C@H]1C[C@@H](C(=O)O)C1)[C@H]2C(=O)Nc1cc(F)c([Si](C)(C)C)c(F)c1 [Example 8, cis-3-(((1R)-1-((3,5-difluoro-4-(trimethylsilyl)phenyl)carbamoyl)-6-ethoxy-3,4-dihydroisoquinolin-2(1H)-yl)carbonyl)cyclobutanecarboxylic acid]
- inhibition at 10 µM [1]: 82.9%
- inhibition at 1 µM (RORγt [2]): 90%
- inhibition at 1 µM (RORγt [3]): 102%
- inhibition at 3 µM (RORγt [4]): 100%
- percent inhibition of IL-17A gene expression (IL-17A gene expression): 72%

SMILES: COc1ccc2c(n1)CCN(C(=O)[C@H]1C[C@@H]1CC(=O)O)[C@H]2C(=O)Nc1cc(F)c([Si](C)(C)C)c(F)c1 [Example 13, ((1R,2S)-2-(((5R)-5-((3,5-difluoro-4-(trimethylsilyl)phenyl)carbamoyl)-2-methoxy-7,8-dihydro-1,6-naphthyridin-6(5H)-yl)carbonyl)cyclopropyl)acetic acid]
- inhibition at 1 µM (RORγt [2]): 83%
- inhibition at 1 µM (RORγt [3]): 102%
- inhibition at 3 µM (RORγt [4]): 104%
- percent inhibition of IL-17A gene expression (IL-17A gene expression): 91%

SMILES: CCOCC(C)(C)c1c(F)cc(NC(=O)[C@H]2c3ccc(OCC)cc3CCN2C(=O)[C@H]2C[C@@H](CC(=O)O)C2)cc1F [Example 18, (cis-3-(((1R)-6-ethoxy-1-((4-(1-ethoxy-2-methylpropan-2-yl)-3,5-difluorophenyl)carbamoyl)-3,4-dihydroisoquinolin-2(1H)-yl)carbonyl)cyclobutyl)acetic acid]
- inhibition at 10 µM [1]: 80%
- inhibition at 1 µM (RORγt [2]; test compound 1 μM): 70%
- inhibition at 1 µM (RORγt [3]; test compound 1 μM): 101%
- inhibition at 3 µM (RORγt [4]; Jurkat): 97%

SMILES: COc1ccc2c(n1)CCN(C(=O)[C@H]1C[C@H](CC(=O)O)C1)[C@H]2C(=O)Nc1cc(F)c2c(c1)CCC2(C)C [Example 20, (trans-3-(((5R)-5-((7-fluoro-1,1-dimethyl-2,3-dihydro-1H-inden-5-yl)carbamoyl)-2-methoxy-7,8-dihydro-1,6-naphthyridin-6(5H)-yl)carbonyl)cyclobutyl)acetic acid]
- percent inhibition of IL-17A gene expression (IL-17A gene expression): 99%

SMILES: COCc1ccc2c(c1)CCN(C(=O)[C@H]1C[C@H](CC(=O)O)C1)[C@H]2C(=O)Nc1cc(F)c2c(c1)CCC2(C)C [Example 24, (trans-3-(((1R)-1-((7-fluoro-1,1-dimethyl-2,3-dihydro-1H-inden-5-yl)carbamoyl)-6-(methoxymethyl)-3,4-dihydroisoquinolin-2(1H)-yl)carbonyl)cyclobutyl)acetic acid]
- inhibition at 10 µM [1]: 92.7%
- inhibition at 1 µM (RORγt [2]; test compound 1 μM): 80%
- inhibition at 1 µM (RORγt [3]; test compound 1 μM): 101%
- inhibition at 3 µM (RORγt [4]; Jurkat): 101%

SMILES: COc1ccc2c(c1)CCN(C(=O)[C@H]1C[C@@H](CC(=O)O)C1)[C@H]2C(=O)Nc1cc(F)c([Si](C)(C)C)c(F)c1 [Example 25, (cis-3-(((1R)-1-((3,5-difluoro-4-(trimethylsilyl)phenyl)carbamoyl)-6-methoxy-3,4-dihydroisoquinolin-2(1H)-yl)carbonyl)cyclobutyl)acetic acid]
- inhibition at 1 µM (RORγt [2]): 93%
- inhibition at 1 µM (RORγt [3]): 102%
- inhibition at 3 µM (RORγt [4]): 101%
- percent inhibition of IL-17A gene expression (IL-17A gene expression): 92%

SMILES: COc1ccc2c(c1)CCN(C(=O)[C@H]1C[C@@H](C(=O)O)C1)[C@H]2C(=O)Nc1ccc([Si](C)(C)C)c(F)c1 [Example 32, cis-3-(((1R)-1-((3-fluoro-4-(trimethylsilyl)phenyl)carbamoyl)-6-methoxy-3,4-dihydroisoquinolin-2(1H)-yl)carbonyl)cyclobutanecarboxylic acid]
- inhibition at 1 µM (RORγt [2]): 91%
- inhibition at 1 µM (RORγt [3]): 102%
- inhibition at 3 µM (RORγt [4]): 101%
- percent inhibition of IL-17A gene expression (IL-17A gene expression): 83%
